Laboratory results reported in patent publication US11214557B2, “MAGL inhibitors” (H. Lundbeck A/S, priority 2018, dated 2022).

Columns and labels:
MAGL [1] = molecular target: MAGL (Homo sapiens (Human), UniProt Q99685); test: In vitro competitive activity-based protein profiling (human proteomes); type: biochemical; details: human proteome; for inhibition at 1 µM: 1 μM inhibitor, read-out: MAGL % inh. 1 μM (human)
Description: In Vitro Competitive Activity-Based Protein Profiling
Proteomes (mouse brain membrane fraction or cell lysates for mouse assays; human prefrontal cortex or cell membrane fractions for human assays) (50 μL, 1.0 mg/mL total protein concentration) were preincubated with varying concentrations of inhibitors at 37° C. After 30 min, FP—Rh or HT-01 (1.0 μL, 50 μM in DMSO) was added and the mixture was incubated for another 30 min at 37° C. Reactions were quenched with SDS loading buffer (15 μL—4×) and run on SDS-PAGE.

MAGL [2] = molecular target: MAGL (Mus musculus (Mouse), UniProt O35678); test: Mouse brain proteomes from inhibitor treated mice (oral gavage, ABPP analysis); type: in vivo; details: 5 mg/kg oral gavage, 4 h after administration, read-out: MAGL % inh. 5 mg/kg (mouse)
Description: Preparation of Mouse Brain Proteomes from Inhibitor Treated Mice
Inhibitors were administered to wild-type C57Bl/6J by oral gavage in a vehicle of polyethylene glycol.

MAGL (Homo sapiens (Human), UniProt Q99685), sequence (Q99685 whole entry): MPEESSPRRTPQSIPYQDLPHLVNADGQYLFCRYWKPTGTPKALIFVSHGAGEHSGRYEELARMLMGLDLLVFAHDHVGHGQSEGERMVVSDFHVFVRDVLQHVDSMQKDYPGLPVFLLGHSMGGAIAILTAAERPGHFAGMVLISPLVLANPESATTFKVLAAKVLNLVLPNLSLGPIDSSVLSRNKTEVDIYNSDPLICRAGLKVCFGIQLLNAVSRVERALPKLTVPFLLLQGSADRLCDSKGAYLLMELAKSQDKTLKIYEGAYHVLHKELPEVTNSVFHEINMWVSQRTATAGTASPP
MAGL (Mus musculus (Mouse), UniProt O35678), sequence (O35678 whole entry): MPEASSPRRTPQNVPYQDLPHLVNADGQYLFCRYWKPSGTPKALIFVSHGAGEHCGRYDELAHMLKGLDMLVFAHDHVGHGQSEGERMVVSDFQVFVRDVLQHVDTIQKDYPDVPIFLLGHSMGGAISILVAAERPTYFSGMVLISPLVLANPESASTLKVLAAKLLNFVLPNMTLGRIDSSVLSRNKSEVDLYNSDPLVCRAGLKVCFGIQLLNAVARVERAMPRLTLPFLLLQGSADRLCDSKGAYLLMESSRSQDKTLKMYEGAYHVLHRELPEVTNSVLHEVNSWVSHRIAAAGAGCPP

Row | inhibition at 1 µM (MAGL [1]) | IC50 (MAGL [1]) | inhibition at 5 mg/kg (MAGL [2]) | inhibition at 10 µM (MAGL [1]; 10 μM inhibitor, read-out: MAGL % inh. (human) @ 10 μM) | SMILES
1 | > 75% | < 50 nM | > 75% |  | CC(C)(Oc1c(CN2CCN(C(=O)OC(C(F)(F)F)C(F)(F)F)CC2)cccc1C(F)(F)F)C(=O)O [Example 2, 2-(2-((4-(((1,1,1,3,3,3-Hexafluoropropan-2-yl)oxy)carbonyl)piperazin-1-yl)methyl)-6-(trifluoromethyl)phenoxy)-2-methylpropanoic acid]
2 | > 75% | < 50 nM | 0 to 25% |  | CC(C)(Oc1cc(C(F)(F)F)ccc1CN1CCN(C(=O)OC(C(F)(F)F)C(F)(F)F)CC1)C(=O)NS(=O)(=O)C1CC1 [Example 6, 1,1,1,3,3,3-Hexafluoropropan-2-yl 4-(2-((1-(cyclopropanesulfonamido)-2-methyl-1-oxopropan-2-yl)oxy)-4-(trifluoromethyl)benzyl)piperazine-1-carboxylate]
3 | > 75% |  |  |  | C[C@@H](Oc1cc(C#N)ccc1CN1CCN(C(=O)OC(C(F)(F)F)C(F)(F)F)CC1)C(=O)O [Example 45, (R)-2-(5-Cyano-2-((4-(((1,1,1,3,3,3-hexafluoropropan-2-yl)oxy)carbonyl)piperazin-1-yl)methyl)phenoxy) propanoic acid]
4 | 50 to 75% |  |  |  | O=C(O)COc1c(F)cccc1CN1CCN(C(=O)OC(C(F)(F)F)C(F)(F)F)CC1 [Example 11, 2-(2-Fluoro-6-((4-(((1,1,1,3,3,3-hexafluoropropan-2-yl)oxy)carbonyl)piperazin-1-yl)methyl)phenoxy)acetic acid]
5 | > 75% |  |  |  | CCOC(=O)C(C)(C)Oc1cc(C(F)(F)F)ccc1CN1CCN(C(=O)OC(C(F)(F)F)C(F)(F)F)CC1 [Example 50, 1,1,1,3,3,3-Hexafluoropropan-2-yl 4-(2-((1-ethoxy-2-methyl-1-oxopropan-2-yl)oxy)-4-(trifluoromethyl)benzyl) piperazine-1-carboxylate]
6 | > 75% | < 50 nM | 0 to 25% |  | CC(C)(Oc1cc(Cl)ccc1CN1CCN(C(=O)OC(C(F)(F)F)C(F)(F)F)CC1)C(=O)O [Example 1, 2-(5-Chloro-2-((4-(((1,1,1,3,3,3-hexafluoropropan-2-yl)oxy)carbonyl)piperazin-1-yl)methyl)phenoxy)-2-methylpropanoic acid]
7 | > 75% | < 50 nM | > 75% |  | CC(C)(COc1cc(C(F)(F)F)ccc1CN1CCN(C(=O)OC(C(F)(F)F)C(F)(F)F)CC1)C(=O)O [Example 4, 3-(2-((4-(((1,1,1,3,3,3-Hexafluoropropan-2-yl)oxy)carbonyl)piperazin-1-yl)methyl)-5-(trifluoromethyl)phenoxy)-22-dimethylpropanoic acid]
8 | > 75% | < 50 nM | 50 to 75% |  | Cc1ccc(CN2CCN(C(=O)OC(C(F)(F)F)C(F)(F)F)CC2)c(OC(C)(C)C(=O)O)c1Cl [Example 17, 2-(2-Chloro-6-((4-(((1,1,1,3,3,3-hexafluoropropan-2-yl)oxy)carbonyl)piperazin-1-yl)methyl)-3-methylphenoxy)-2-methylpropanoic acid]
9 | > 75% |  |  |  | CC(C)(C)C(=O)OCOC(=O)C(C)(C)Oc1cc(C(F)(F)F)ccc1CN1CCN(C(=O)OC(C(F)(F)F)C(F)(F)F)CC1 [Example 49, 1,1,1,3,3,3-Hexafluoropropan-2-yl 4-(2-((2-methyl-1-oxo-1-((pivaloyloxy)methoxy)propan-2-yl)oxy)-4-(trifluoromethyl)benzyl) piperazine-1-carboxylate]
10 |  |  |  | > 75% | COc1ccc(OC(C)(C)C(=O)O)cc1CN1CCN(C(=O)OC(C(F)(F)F)C(F)(F)F)CC1 [Example 35, 2-(3-((4-(((1,1,1,3,3,3-Hexafluoropropan-2-yl)oxy)carbonyl)piperazin-1-yl)methyl)-4-methoxyphenoxy)-2-methylpropanoic acid]
11 | > 75% | < 50 nM |  |  | O=C(O)COc1cc(CN2CCN(C(=O)OC(C(F)(F)F)C(F)(F)F)CC2)cc(OC(F)(F)F)c1 [Example 44, 2-(3-((4-(((1,1,1,3,3,3-Hexafluoropropan-2-yl)oxy)carbonyl)piperazin-1-yl)methyl)-5-(trifluoromethoxy)phenoxy) acetic acid]
12 | > 75% |  |  |  | CCOC(=O)OC(C)OC(=O)C(C)(C)Oc1cc(C(F)(F)F)ccc1CN1CCN(C(=O)OC(C(F)(F)F)C(F)(F)F)CC1 (stereo not drawn) [Example 12, 1,1,1,3,3,3-Hexafluoropropan-2-yl 4-(2-((1-(1-((ethoxycarbonyl)oxy)ethoxy)-2-methyl-1-oxopropan-2-yl)oxy)-4-(trifluoromethyl)benzyl)piperazine-1-carboxylate]
13 | > 75% | < 50 nM |  |  | CC(C)(Oc1cc(CN2CCN(C(=O)OC(C(F)(F)F)C(F)(F)F)CC2)cc(C(F)(F)F)c1)C(=O)O [Example 47, 2-(3-((4-(((1,1,1,3,3,3-Hexafluoropropan-2-yl)oxy)carbonyl)piperazin-1-yl)methyl)-5-(trifluoromethyl)phenoxy)-2-methylpropanoic acid]
14 | > 75% | < 50 nM | > 75% |  | CC(C)(COc1cc(CN2CCN(C(=O)OC(C(F)(F)F)C(F)(F)F)CC2)cc(C(F)(F)F)c1)C(=O)O [Example 5, 3-(3-((4-(((1,1,1,3,3,3-Hexafluoropropan-2-yl)oxy)carbonyl)piperazin-1-yl)methyl)-5-(trifluoromethyl)phenoxy)-2,2-dimethylpropanoic acid]
15 | > 75% | < 50 nM | > 75% |  | CC(C)(Oc1cc(C(F)(F)F)ccc1CN1CCN(C(=O)OC(C(F)(F)F)C(F)(F)F)CC1)C(=O)O [Example 3, 2-(2-((4-(((1,1,1,3,3,3-Hexafluoropropan-2-yl)oxy)carbonyl)piperazin-1-yl)methyl)-5-(trifluoromethyl)phenoxy)-2-methylpropanoic acid]
16 | > 75% |  |  |  | C[C@H](Oc1cc(C#N)ccc1CN1CCN(C(=O)OC(C(F)(F)F)C(F)(F)F)CC1)C(=O)O [Example 46, (S)-2-(5-Cyano-2-((4-(((1,1,1,3,3,3-hexafluoropropan-2-yl)oxy)carbonyl)piperazin-1-yl)methyl)phenoxy) propanoic acid]
17 | > 75% |  |  |  | CC(OC(=O)C(C)C)OC(=O)C(C)(C)Oc1cc(C(F)(F)F)ccc1CN1CCN(C(=O)OC(C(F)(F)F)C(F)(F)F)CC1 (stereo not drawn) [Example 13, 1,1,1,3,3,3-Hexafluoropropan-2-yl 4-(2-((1-(1-(isobutyryloxy)ethoxy)-2-methyl-1-oxopropan-2-yl)oxy)-4-(trifluoromethyl)benzyl)piperazine-1-carboxylate]
18 | > 75% |  |  |  | CC(C)OC(=O)OC(C)OC(=O)C(C)(C)Oc1cc(C(F)(F)F)ccc1CN1CCN(C(=O)OC(C(F)(F)F)C(F)(F)F)CC1 (stereo not drawn) [Example 51, 1,1,1,3,3,3-Hexafluoropropan-2-yl 4-(2-((1-(1-((isopropoxycarbonyl)oxy)ethoxy)-2-methyl-1-oxopropan-2-yl)oxy)-4-(trifluoromethyl)benzyl) piperazine-1-carboxylate]
19 | > 75% | < 50 nM | > 75% |  | Cc1ccc(CN2CCN(C(=O)OC(C(F)(F)F)C(F)(F)F)CC2)c(OCC(C)(C)C(=O)O)c1F [Example 48, 3-(2-Fluoro-6-((4-(((1,1,1,3,3,3-hexafluoropropan-2-yl)oxy)carbonyl)piperazin-1-yl)methyl)-3-methylphenoxy)-2,2-dimethylpropanoic acid]
20 | > 75% | < 50 nM |  |  | CC(C)(Oc1cc(C#N)ccc1CN1CCN(C(=O)OC(C(F)(F)F)C(F)(F)F)CC1)C(=O)O [Example 26, 2-(5-Cyano-2-((4-(((1,1,1,3,3,3-hexafluoropropan-2-yl)oxy)carbonyl)piperazin-1-yl)methyl)phenoxy)-2-methylpropanoic acid]
